Reference: publication PMC6364417, “Kinase inhibitor library screening identifies synergistic drug combinations effective in sensitive and resistant melanoma cells” (Journal of Experimental & Clinical Cancer Research : CR, 2019)

Legend:
Test in all cases: Kinase inhibitor library screening, PrestoBlue cell viability, 1 or 10 μM, 72 h
[1] = system: 501Mel cells (parental); conditions: 72 h
How it was run: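 Normalised to untreated controls, viability percentages came from PrestoBlue measured on a microplate reader following 72 h incubation with drug. Each line was assayed at least twice.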

[2] = system: 501Mel-GP cells (Dabrafenib-resistant); conditions: 72 h
[3] = system: 501Mel-XP cells (Vemurafenib-resistant); conditions: 72 h
[4] = system: A375 cells (parental)
[5] = system: A375-GP cells (Dabrafenib-resistant)
[6] = system: A375-XP cells (Vemurafenib-resistant)
[7] = system: IGR37 cells (parental)
[8] = system: IGR37-GP cells (Dabrafenib-resistant)
[9] = system: IGR37-XP cells (Vemurafenib-resistant)

## COC[C@H]1OC(=O)c2coc3c2[C@@]1(C)C1=C(C3=O)[C@@H]2CCC(=O)[C@@]2(C)C[C@H]1OC(C)=O [Wortmannin]
[1]; 501Mel Parental, 10μΜ, in %
  Cell viability in kinase inhibitor library screening, 501Mel Parental, 10μΜ: 57.2
[2]; 501Mel GP, 1μΜ, in %
  Cell viability in kinase inhibitor library screening, 501Mel GP, 1μΜ: 95.9
[2]; 501Mel GP, 10μΜ, in %
  Cell viability in kinase inhibitor library screening, 501Mel GP, 10μΜ: 51.6
[3]; 501Mel XP, 1μΜ, in %
  Cell viability in kinase inhibitor library screening, 501Mel XP, 1μΜ: 91.1
[3]; 501Mel XP, 10μΜ, in %
  Cell viability in kinase inhibitor library screening, 501Mel XP, 10μΜ: 23.3
[4]; A375 Parental, 10μΜ, 72 h
  Cell viability in kinase inhibitor library screening, A375 Parental, 10μΜ: 77.1
[4]; A375 Parental, 1μΜ, 72 h
  Cell viability in kinase inhibitor library screening, A375 Parental, 1μΜ: 109.1
[5]; A375 GP, 1μΜ, 72 h
  Cell viability in kinase inhibitor library screening, A375 GP, 1μΜ: 103.2
[5]; A375 GP, 10μΜ, 72 h
  Cell viability in kinase inhibitor library screening, A375 GP, 10μΜ: 72.0
[6]; A375 XP, 10μΜ, 72 h
  Cell viability in kinase inhibitor library screening, A375 XP, 10μΜ: 67.6
[7]; IGR37 Parental, 1μΜ, 72 h, in %
  Cell viability in kinase inhibitor library screening, IGR37 Parental, 1μΜ: 99.5
[7]; IGR37 Parental, 10μΜ, 72 h, in %
  Cell viability in kinase inhibitor library screening, IGR37 Parental, 10μΜ: 76.3
[8]; IGR37 GP, 10μΜ, 72 h
  Cell viability in kinase inhibitor library screening, IGR37 GP, 10μΜ: 22.9%
[8]; IGR37 GP, 1μΜ, 72 h, in %
  Cell viability in kinase inhibitor library screening, IGR37 GP, 1μΜ: 97.7
[9]; IGR37 XP, 10μΜ, 72 h
  Cell viability in kinase inhibitor library screening, IGR37 XP, 10μΜ: 26.8%
[9]; IGR37 XP, 1μΜ, 72 h, in %
  Cell viability in kinase inhibitor library screening, IGR37 XP, 1μΜ: 96.4

## O=C(NC[C@H](O)CO)c1ccncc1Nc1ccc(I)cc1F [AS703026]
[1]; Homo sapiens, read-out: cell viability, 501Mel Parental, 1μΜ
  viability at 1 µM: 50.1%
[1]; Homo sapiens, read-out: cell viability, 501Mel Parental, 10μΜ
  viability at 10 µM: 57.6%
[2]; Homo sapiens, read-out: cell viability, 501Mel GP, 1μΜ
  viability at 1 µM: 95.8%
[2]; Homo sapiens, read-out: cell viability, 501Mel GP, 10μΜ
  viability at 10 µM: 78.7%
[3]; Homo sapiens, read-out: cell viability, 501Mel XP, 1μΜ
  viability at 1 µM: 79.8%
[3]; Homo sapiens, read-out: cell viability, 501Mel XP, 10μΜ
  viability at 10 µM: 56%
[4]; Homo sapiens, A-375, 72 h, read-out: cell viability, A375 Parental, 1μΜ
  viability at 1 µM: 18.5%
[4]; Homo sapiens, A-375, 72 h, read-out: cell viability, A375 Parental, 10μΜ
  viability at 10 µM: 19.6%
[5]; Homo sapiens, A-375, 72 h, read-out: cell viability, A375 GP, 1μΜ
  viability at 1 µM: 18.8%
[5]; Homo sapiens, A-375, 72 h, read-out: cell viability, A375 GP, 10μΜ
  viability at 10 µM: 15.8%
[6]; Homo sapiens, A-375, 72 h, read-out: cell viability, A375 XP, 1μΜ
  viability at 1 µM: 15.5%
[6]; Homo sapiens, A-375, 72 h, read-out: cell viability, A375 XP, 10μΜ
  viability at 10 µM: 9.6%
[7]; Homo sapiens, IGR-37, 72 h, read-out: cell viability, IGR37 Parental, 1μΜ
  viability at 1 µM: 33.3%
[7]; Homo sapiens, IGR-37, 72 h, read-out: cell viability, IGR37 Parental, 10μΜ
  viability at 10 µM: 35.4%
[8]; Homo sapiens, IGR-37, 72 h, read-out: cell viability, IGR37 GP, 1μΜ
  viability at 1 µM: 77%
[8]; Homo sapiens, IGR-37, 72 h, read-out: cell viability, IGR37 GP, 10μΜ
  viability at 10 µM: 59.4%
[9]; Homo sapiens, IGR-37, 72 h, read-out: cell viability, IGR37 XP, 1μΜ
  viability at 1 µM: 52.7%
[9]; Homo sapiens, IGR-37, 72 h, read-out: cell viability, IGR37 XP, 10μΜ
  viability at 10 µM: 18.8%

## CCn1cc(-c2ccnc3[nH]c(-c4cccc(CN(C)C)c4)cc23)c(-c2ccc(NC(=O)N(C)C)cc2)n1 [GSK1070916]
[1]; 501Mel Parental, 1μΜ
  cell viability (kinase inhibitor library screening): 94.0%
[1]; 501Mel Parental, 10μΜ
  cell viability (kinase inhibitor library screening): 36.8%
[2]; 501Mel GP, 10μΜ
  cell viability (kinase inhibitor library screening): 50.8%
[3]; 501Mel XP, 1μΜ
  cell viability (kinase inhibitor library screening): 90.5%
[3]; 501Mel XP, 10μΜ
  cell viability (kinase inhibitor library screening): 18.1%
[4]; A375 Parental, 10μΜ, 72 h
  cell viability (kinase inhibitor library screening): 36.0%
[4]; A375 Parental, 1μΜ, 72 h
  cell viability (kinase inhibitor library screening): 53.8%
[5]; A375 GP, 1μΜ, 72 h
  cell viability (kinase inhibitor library screening): 47.6%
[5]; A375 GP, 10μΜ, 72 h
  cell viability (kinase inhibitor library screening): 34.9%
[6]; A375 XP, 1μΜ, 72 h
  cell viability (kinase inhibitor library screening): 57.6%
[6]; A375 XP, 10μΜ, 72 h
  cell viability (kinase inhibitor library screening): 37.9%
[7]; IGR37 Parental, 1μΜ, 72 h
  cell viability (kinase inhibitor library screening): 94.1%
[7]; IGR37 Parental, 10μΜ, 72 h
  cell viability (kinase inhibitor library screening): 85.3%
[8]; IGR37 GP, 1μΜ, 72 h
  cell viability (kinase inhibitor library screening): 98.0%
[8]; IGR37 GP, 10μΜ, 72 h
  cell viability (kinase inhibitor library screening): 46.1%
[9]; IGR37 XP, 1μΜ, 72 h
  cell viability (kinase inhibitor library screening): 88.9%
[9]; IGR37 XP, 10μΜ, 72 h
  cell viability (kinase inhibitor library screening): 7.5%

## COc1cc2c(Nc3ccc(NC(=O)c4ccccc4)cc3)ncnc2cc1OCCCN1CCOCC1 [ZM-447439]
[1]; 501Mel Parental, 1μΜ
  cell viability (kinase inhibitor library screening): 90.8%
[1]; 501Mel Parental, 10μΜ
  cell viability (kinase inhibitor library screening): 7.6%
[2]; 501Mel GP, 1μΜ
  cell viability (kinase inhibitor library screening): 104.5%
[2]; 501Mel GP, 10μΜ
  cell viability (kinase inhibitor library screening): 2.3%
[3]; 501Mel XP, 1μΜ
  cell viability (kinase inhibitor library screening): 90.5%
[3]; 501Mel XP, 10μΜ
  cell viability (kinase inhibitor library screening): -0.26%
[4]; A375 Parental, 10μΜ, 72 h
  cell viability (kinase inhibitor library screening): 56.3%
[4]; A375 Parental, 1μΜ, 72 h
  cell viability (kinase inhibitor library screening): 76.7%
[5]; A375 GP, 1μΜ, 72 h
  cell viability (kinase inhibitor library screening): 79.5%
[5]; A375 GP, 10μΜ, 72 h
  cell viability (kinase inhibitor library screening): 52.0%
[6]; A375 XP, 1μΜ, 72 h
  cell viability (kinase inhibitor library screening): 88.7%
[6]; A375 XP, 10μΜ, 72 h
  cell viability (kinase inhibitor library screening): 65.2%
[7]; IGR37 Parental, 1μΜ, 72 h
  cell viability (kinase inhibitor library screening): 103.7%
[7]; IGR37 Parental, 10μΜ, 72 h
  cell viability (kinase inhibitor library screening): 54.6%
[8]; IGR37 GP, 1μΜ, 72 h
  cell viability (kinase inhibitor library screening): 96.5%
[8]; IGR37 GP, 10μΜ, 72 h
  cell viability (kinase inhibitor library screening): 69.7%
[9]; IGR37 XP, 1μΜ, 72 h
  cell viability (kinase inhibitor library screening): 95.9%
[9]; IGR37 XP, 10μΜ, 72 h
  cell viability (kinase inhibitor library screening): 24.7%
